In patent US4620930A, “Process for rapidly determining biological toxicity of wastewater” (priority 1985, dated 1986):
≈ marks a conversion by molar mass, not a printed value. Like-named read-outs stand apart in the source and are kept apart here.

What was measured:
[1] = tested on: PHENOBAC bacterial culture; experiment: microbe, parasite or virus in culture; format: cell-based, PHENOBAC mutant bacteria containing Pseudomonas; conditions: for IC50: 20 min, read-out: concentration resulting in an inhibition of the bacteria of about 50%
Text: In the rapid toxicity test described herein the dried culture first undergoes rehydration and then respiration development when contacted with aqueous system containing organic material.
In carrying out the test process, a preselected amount of the dried bacterial culture is first charged to a preselected amount of a standardized substrate for the purpose of determining a standard of respiration or activity of the culture. […] Typically, the quantity of bacterial culture is selected to give a good rate of oxygen decline, e.g., a decline of 2-5 mg/liter oxygen over a twenty minute interval. For reference purposes from 5 to 15 grams of culture/500 ml. of sample solution will be sufficient. The standardized substrate used in the test procedure is […] or another standardized medium of known composition. […] During this period, this oxygen respiration activity is measured by measuring the dissolved oxygen content in the substrate. The dissolved oxygen content then is plotted as a function of time. The rate of decline of dissolved oxygen content in the substrate is ascertained at some preselected time where the rate of dissolved oxygen decline is substantial and where the residual oxygen in the sample of greater than 0.5 mg/l oxygen. With bacterial cultures of the type described, this preselected time can be within the range of 10 to 30 minutes. […] Although numerous methods can be used to ascertain the rate of decline of oxygen, the simplest is to determine that rate from a graph by taking the slope (y/x) of the curve at the preselected time.
The organic quality of sewage, in terms of organic content or toxic substance, is measured by repeating the exact same process, using the test sample in place of the standardized sample. In many instances, particularly where the test sample contains a substantial amount of toxic material or organic matter, the test sample may be diluted with distilled water to provide a more accurate measurement. This is done in those cases where the slope of the curve is small. In any event, the test substrate or wastewater to be tested is added to the test vessel containing the bacterial culture and the dissolved oxygen content measured as a function of time. The rate of decline in dissolved oxygen content for the test substrate or wastewater is then determined at the same preselected time utilized for the standard. This rate of decline is then compared to the rate of decline for the standardized substrate. The relative toxicity or inhibition of the test water versus the standardized substrate, can then be calculated by the equation: [formula]
A baseline standard was generated for a bacterial formulation sold under the trademark PHENOBAC by Polybac Corporation by first charging 350 ml of distilled water to a first vessel. The water was then saturated with oxygen by sealing the vessel which was half full of air and shaking it rapidly.

[2] = tested on: PHENOBAC bacterial culture; experiment: microbe, parasite or virus in culture; conditions: Pseudomonas, pH 7, read-out: percent inhibition, with prehydration
Procedure: A baseline standard was generated for a bacterial formulation sold under the trademark PHENOBAC by Polybac Corporation by first charging 350 ml of distilled water to a first vessel. The water was then saturated with oxygen by sealing the vessel which was half full of air and shaking it rapidly. The dissolved oxygen content of the sample was then measured to determine if the oxygen level exceeded 5.0 mg/l at a temperature of 20° C. (If the level was above 5.0 mg/l, it was assumed the sample was sufficiently saturated with oxygen to proceed.) After oxygen saturation, the water was charged to a second vessel containing 8 grams of the dried granular PHENOBAC mutant bacteria containing Pseudomonas and 0.6 grams of potassium bicarbonate. The latter acted to buffer the pH in the vessel to approximately 7. A dissolved oxygen probe was then inserted into the vessel and the contents of the vessel stirred while measuring the dissolved oxygen concentration in the vessel. Several measured data points were recorded in one to two minute intervals for a period of about 30 minutes. These values were plotted with dissolved oxygen in mg/liter represented on the ordinant and time (minute) plotted represented on the abscissa. The baseline standard curves are shown as Curves A and J on FIGS. 1 and 2 respectively.
A series of tests was conducted for the purpose of determining the relative toxicity of various phenolic solutions. The general test technique involved the utilization of test samples containing various known concentrations of toxic material, e.g., phenol. The test sample was buffered to a pH of 7 by the addition of sodium hydroxide or sulphuric acid. Measurement of pH using pH paper was found most convenient. Once the pH of the solution was at the appropriate level, the sample was then aerated by placing the sample in a vessel half full of air, sealing the vessel and shaking the vessel vigorously for several minutes. The oxygen saturated 350 ml. solution having a dissolved oxygen content greater than 5.0 mg/l was then introduced to a test vessel containing 8 grams of dried granular PHENOBAC bacterial culture and 0.5 g of sodium bicarbonate. The dissolved oxygen concentration in the closed sealed vessel was then measured and plotted for a series of phenol concentrations in FIG. 1 in the same manner as the baseline standard in Example 1 and also illustrated in FIG. 1. Each curve, B-G, is labeled with respect to the phenol concentration present during the test. Curve A represents the baseline standard. From these curves one can calculate the rate of decline in dissolved oxygen concentration observed at 20 minutes for each phenol concentration. The percent inhibition is then calculated from the various dissolved oxygen decline curves for each phenol concentration in FIG. 1 according to the equation: [formula]
As in Examples 1 and 2, the general technique for these tests involved pretreatment of the wastewater or test solution to achieve a pH of 7.0 and an oxygen saturation of at least 5.0 mg/l. However, prior to adding the test solution to the test vessel containing the dried PHENOBAC culture, the bacteria were allowed to rehydrate 10 minutes in clean water and then the test solution containing phenol was added to the test vessel. In this manner, the initial rehydration of the bacterial populations was carried out in the absence of the chemical being tested. This is the customary prior art procedure. After rehydration, the bacteria were then exposed to the test chemical and its effect on bacterial respiration evaluated.

[3] = Pseudomonas, pH 7, read-out: percent inhibition, preferred contact rehydration

Row | Compound | concentration resulting in an inhibition of the bacteria of about 50% ([1]; from FIG. 3, rate of dissolved oxygen decline at 20 minutes versus baseline standard) | IC50 ([1]; Pseudomonas) | inhibition at 312 µg/mL [1, 3] | inhibition at 625 µg/mL [1, 3] | inhibition at 1250 µg/mL [1, 3] | inhibition at 2500 µg/mL [1, 3] | inhibition at 5000 µg/mL [1, 3] | inhibition at 10000 µg/mL [1, 3] | inhibition or sensitivity of the bacteria, direct contact rehydration compared with prehydration in water ([1]; rehydrated in direct contact with the test phenol solutions rather than in water first) | inhibition at 312 µg/mL [2] | inhibition at 625 µg/mL [2] | inhibition at 1250 µg/mL [2] | inhibition at 2500 µg/mL [2] | inhibition at 5000 µg/mL [2] | inhibition at 10000 µg/mL [2]
1 | [Cu+2] [copper, copper (+2) ion] | 29 mg/L |  |  |  |  |  |  |  |  |  |  |  |  |  | 
2 | C=O [formaldehyde] |  | ~140 µg/mL (≈ 4.66 mM) |  |  |  |  |  |  |  |  |  |  |  |  | 
3 | Oc1ccccc1 [phenol] |  | ~1600 µg/mL (≈ 17 mM) | 12% | 22% | 37% | 68% | 87% | 98% | greater inhibition or sensitivity | 10% | 17% | 33% | 57% | 80% | 93%
